# In patent US20200054653A1, “ACEFAPC FOR THE TREATMENT OF ACETYLCHOLINE-DEPENDENT DISEASES” (LIPTHER, priority 2017, published 2020):
# Read-outs that look alike come from different tables or passages of the source.
# Tests used:
# [1] = biological target: microbial (Streptomyces chromofuscus) phospholipase D (Streptomyces chromofuscus, UniProt Q8KRU5); assay: Acellular incubation of AceFaPC with phospholipase D, acetylcholine detected by mass spectrometry; type: biochemical; conditions: Tris-HCl pH 8, one hour at 37° C.
# Procedure: Acellular incubation of AceFaPC was performed in the presence of a microbial (Streptomyces chromofuscus) phospholipase D in a Tris-HCl pH 8 (brain pH) buffer for one hour at 37° C. Following incubation, phospholipase D was destroyed by adding ethanol. After centrifugation, the aqueous ethanolic mixture was separated and evaporated to dryness. The residue was dissolved in the mixture 95% acetonitrile/5% ammonium formate and then filtered by centrifugation. Acetylcholine was detected in the solution by mass spectrometry. Acetylcholine was detected on the basis of both its molecular mass (146) and that of its main fragmentation product (87: majority ion corresponding to the radical CH3—COO—CH2—CH2—) (FIG. 2).
# In these acellular experiments, two substrates were used considering the lowest unsaturation for acyl in the sn-2 position, namely the oleoyl radical (R2—COO—, FIG. 1): AceOIPC and the highest with the docosahexaenoyl radical: AceDoPC®. For AceOIPC, approximately 5% of the released choline was converted to acetylcholine. For AceDoPC®, this conversion reached 36%. The reasons for this difference are unknown at this stage of the experiment. […]
# [2] = rat, cited from earlier work
# [3] = test system: reconstituted blood-brain barrier; conditions: compared with non-esterified DHA or PC-DHA; cited from earlier work
# [4] = test system: brain lesions after ischemic stroke; conditions: injected into rats after ischemic stroke; cited from earlier work
# Sequence of microbial (Streptomyces chromofuscus) phospholipase D (Q8KRU5 47-556): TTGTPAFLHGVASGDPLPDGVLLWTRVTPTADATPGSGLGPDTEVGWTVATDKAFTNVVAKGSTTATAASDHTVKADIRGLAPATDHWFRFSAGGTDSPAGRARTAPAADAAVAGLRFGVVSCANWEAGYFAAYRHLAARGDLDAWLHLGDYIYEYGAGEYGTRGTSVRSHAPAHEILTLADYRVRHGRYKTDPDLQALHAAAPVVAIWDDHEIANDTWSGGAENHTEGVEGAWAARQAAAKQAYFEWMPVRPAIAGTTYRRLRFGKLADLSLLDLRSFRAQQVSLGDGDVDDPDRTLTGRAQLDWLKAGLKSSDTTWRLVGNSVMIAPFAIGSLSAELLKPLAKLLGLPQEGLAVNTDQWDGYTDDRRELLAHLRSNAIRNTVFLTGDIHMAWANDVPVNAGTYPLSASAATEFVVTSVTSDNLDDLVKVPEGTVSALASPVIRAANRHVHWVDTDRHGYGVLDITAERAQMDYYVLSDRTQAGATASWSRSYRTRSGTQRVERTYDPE
SMILES,released choline converted to acetylcholine [1],"radioactivity of AceDoPC in brain, % of the total injected ([2]; after 1 hour)","radioactivity of AceDoPC in brain, % of the total injected ([2]; after 24 hours)","radioactivity of AceDoPC in brain, % of the total injected ([2]; after 48 hours)",passage of a reconstituted blood-brain barrier [3],spread of brain lesions [4]
CCCCCCCCC=CCCCCCCCC(=O)OC(COC(C)=O)COP(=O)([O-])OCC[N+](C)(C)C (stereo not shown) [AceOIPC],approximately 5%,,,,,
"CC/C=C\C/C=C\C/C=C\C/C=C\C/C=C\C/C=C\CCC(=O)O[C@H](COC(C)=O)COP(=O)([O-])OCC[N+](C)(C)C [AceDoPC, 1-acetyl,2-docosahexaenoyl-phosphatidylcholine]",36%,80%,30%,10%,promoted,prevented the spread of brain lesions
